The text below walks through data of article PMC3307802 (MedChemComm, 2011).

Experiment [1] addresses T1, KOP receptors (Homo sapiens, UniProt P41145). The conditions noted are these: cited from earlier work.
Experiment [2] relates to cocaine-induced drug-seeking. The conditions noted are these: rats; dose of 0.3 mg/kg or greater; cited from earlier work.
The next experiment relates to humans. The conditions noted are these: vaporized and inhaled; cited from earlier work.
Experiment [3] deals with serotonin 5HT2A receptors. The conditions noted are these: cited from earlier work.
For experiment [4], the target named is T1, KOP receptors. Description: biochemical. In kind it is biochemical.
For experiment [5], the system named is KOP receptor. The conditions noted are these: cited from earlier work.
Experiment [6] concerns the target KOP receptor. The conditions noted are these: cited from earlier work. This is another data set of the same source.
The target of experiment [7] is T1, KOP receptors. In kind it is binding.
Experiment [8] deals with KOP receptor. Description: Previously published potency/efficacy at KOP receptors. In kind it is biochemical. The conditions noted are these: relative to 1.

As usually defined, the EC50 is the concentration giving half of the maximal effect.

Each structure is given as a SMILES string. Where only a bound is given, the exact number is not on record here.

T1 sequence (P41145 whole entry): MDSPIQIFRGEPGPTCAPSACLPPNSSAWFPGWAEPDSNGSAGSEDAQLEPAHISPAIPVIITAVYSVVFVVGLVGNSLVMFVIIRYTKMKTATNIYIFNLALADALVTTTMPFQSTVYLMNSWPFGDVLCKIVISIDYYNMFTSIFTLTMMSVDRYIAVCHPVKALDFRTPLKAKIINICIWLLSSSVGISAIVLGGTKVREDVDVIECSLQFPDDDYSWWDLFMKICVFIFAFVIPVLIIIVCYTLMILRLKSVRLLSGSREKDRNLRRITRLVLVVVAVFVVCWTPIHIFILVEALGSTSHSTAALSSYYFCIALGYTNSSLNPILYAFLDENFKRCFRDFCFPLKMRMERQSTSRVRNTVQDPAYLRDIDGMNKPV

On to `COC(=O)[C@@H]1C[C@H](OC(C)=O)C(=O)[C@H]2[C@@]1(C)CC[C@H]1C(=O)O[C@H](c3ccoc3)C[C@]21C` [Compound 1, salvinorin A], for which the “ED50 ± SD (κ)” value at KOP receptors [1] was 40 ± 10 nM. In experiment [2], the “effect on cocaine-primed reinstatement of drug seeking” value was “attenuate cocaine-primed reinstatement of drug seeking”. In addition, the “active dose in humans (hallucinogen)” value in the experiment with humans is 4.5 to 21 µg/kg. Moreover, the “activity at serotonin 5HT2A receptors” value in experiment [3] is “does not have activity”.
On KOP receptors [4], `CCOCO[C@H]1C[C@@H](C(=O)OC)[C@]2(C)CC[C@H]3C(=O)O[C@H](c4ccoc4)C[C@]3(C)[C@H]2C1=O` [Compound 4] gave an EC50 of 0.65 ± 0.17 nM.
Still for that read-out and setting: next, `COC(=O)[C@@H]1C[C@H](O[C@@H]2CCCCO2)C(=O)[C@H]2[C@@]1(C)CC[C@H]1C(=O)O[C@H](c3ccoc3)C[C@]21C` [Compound 5]: 60 ± 6 nM.
On to `COC(=O)[C@@H]1C[C@H](O[C@@H]2CCCO2)C(=O)[C@H]2[C@@]1(C)CC[C@H]1C(=O)O[C@H](c3ccoc3)C[C@]21C` [Compound 7a], for which, at KOP receptors [4], the EC50 is 1220 ± 230 nM and the “fold less potent than 1 as agonist” value is given as “approximately 30 fold”.
On to `COC(=O)[C@@H]1C[C@H](O[C@H]2CCCO2)C(=O)[C@H]2[C@@]1(C)CC[C@H]1C(=O)O[C@H](c3ccoc3)C[C@]21C` [Compound 7b], for which, at KOP receptors [4], the EC50 amounted to 690 ± 80 nM and the “fold less potent than 1 as agonist” value is recorded as around 17 fold.
Consider `CCOC(=O)O[C@H]1C[C@@H](C(=O)OC)[C@]2(C)CC[C@H]3C(=O)O[C@H](c4ccoc4)C[C@]3(C)[C@H]2C1=O` [Compound 11], for which the “affinity at the KOP receptor vs. [3H]bremazocine” value in the experiment with KOP receptor [5] (vs. [3H]bremazocine) is “no appreciable affinity”. Besides, the “affinity at the KOP receptor vs. [3H]diprenorphine” value in the experiment on KOP receptor [5] (vs. [3H]diprenorphine) is “no appreciable affinity”.
For `CCNC(=O)O[C@H]1C[C@@H](C(=O)OC)[C@]2(C)CC[C@H]3C(=O)O[C@H](c4ccoc4)C[C@]3(C)[C@H]2C1=O` [Compound 12], the EC50 on KOP receptor [6] (read-out: KOP receptor potency EC50) is above 1000 nM.
As to `COCO[C@H]1C[C@@H](C(=O)OC)[C@]2(C)CC[C@H]3C(=O)O[C@H](C(=O)N4CCCCC4)C[C@]3(C)[C@H]2C1=O` [Compound 14], at KOP receptors [7], the “KOP binding affinity worse compared to 3” value is recorded as “roughly 31 fold” and the “KOP receptor binding affinity improved over that of 15” value was “approximately 2 fold”. At KOP receptors [4], the EC50 stood at 1930 ± 239 nM, the “fold less potent than 1 as agonist” value is 48 fold, the “fold less potent than 3 as agonist” value was “roughly 322 fold” and the “improvement in potency over 15” value is “approximately 2.5 fold”.
Turning to `COC(=O)[C@@H]1C[C@H](OC(C)=O)C(=O)[C@H]2[C@@]1(C)CC[C@H]1C(=O)O[C@H](C(=O)N3CCCCC3)C[C@]21C` [Compound 15, reference compound], in the experiment on KOP receptor [8], the “fold less potent than 1 as agonist (previously published analog)” value is given as “approximately 125 fold”. Moreover, the “potency at KOP receptors ED50” value in the experiment on KOP receptor [6] was 5110 ± 1800 nM.
